For eleven molecules, IC50 results are on record in patent US20260356851A1, “TRICYCLIC COMPOUNDS AND USES THEREOF” (HUTCHMED LIMITED, priority 2023, published 2026).

Holding throughout (assay type): cell-based
Experiment [1] has as its target T1, pERK1/2 (Thr202/Tyr204), NCI-1H358 (KRAS G12C) (Homo sapiens, UniProt P01116, G12C).
T1 construct: pERK1/2 HTRF read-out
As to the kind of experiment: Assay of intracellular pERK1/2 (Thr202/Tyr204) phosphorylation in NCI-H358 cells (KRAS G12C). As to conditions: pERK1/2, 2 days, read-out: NCI-H358 (KRAS G12C) IC50. How it is done:
(§1) Example 2: Assay of intracellular pERK1/2 (Thr202/Tyr204)phosphorylation
(§2) 1. Reagents and materials: • pERK1/2 (Thr202/Tyr2O4) HIRE kit, Cisbio, Cat #64ERKPEH; • OptiPlate™-384-well plate, PerkinElmer, Cat #6007299; • 96-well plate, Coming, Cat #353072; • Instrument: EnVision2104, PerkinElmer; • Cell lines: NCI-1H358 (KRAS G12C), ATCC, CRL-5807; PANC-1 (KRAS G121D), ATCC, CRL-1469; NCI-1H441 (KRAS G12V), ATCC, HTB-174.
(§3) 2. Preparation of Reaction Solutions
(§4) • A test compound was dissolved in DMSO, diluted to 200.0 μM and further diluted 3-fold to prepare a series of test compounds at concentrations of 66.7, 22.2, 7.4, 2.5, 0.82, 0.27, 0.09 μM etc. Then 10 μL of the compound at different dilution concentrations was added to 190 μL of a DMEM medium to prepare a 10× test compound; • 1× cell lysis buffer: 4× cell lysis stock solution (provided by the kit) was diluted 4-fold with deionized water, and then 10% 100× blocking stock solution (provided by the kit) was added thereto. • pERK1/2 detection solution (prepared just before use): the pERK1/2 d2 antibody (provided by the kit) and pERK1/2 Cryptate antibody (provided by the kit) were diluted with the detection solution (provided by the kit) at a ratio of 1:1:38.
(§5) • Cells were inoculated into a 96-well plate (100 μL/well) at a density of 10000-12000/well. No cell was inoculated into a negative control well, and only the cell medium was added at 100 μL/well. The plate was placed in a cell incubator at 5% CO2 and 37° C. overnight. • 10 μL of the 10× test compound was added to the 100 μL cell culture 96-well plate; both the positive control well (that is, the control hole without chemical compound treatment) and the negative control well were charged with 10 μL of a 5% DMSO culture solution; and the plate was cultured in a cell incubator at 5% CO2 and 37° C. for 2 days. • The medium in the 96-well plate was removed; 50 μL of the 1× cell lysis buffer was added to each of the wells; the plate was placed in a microplate shaker; and lysis under shaking was carried out at 900 rpm at room temperature for 1 hour. • 16 μL of the lysis buffer in the 96-well plate was taken and transferred to a 384-well plate, followed by centrifugation at 1000 rpm for 30 s; then 4 μL of pERK1/2 detection solution was added to each well, followed by centrifugation at 1000 rpm for 30 s; and the 384-well plate was sealed with a sealing membrane and incubated at 25° C. on a low-speed shaker at 100 rpm in the dark for 2 hours. • The fluorescence value (RFU) of each well was detected on EnVision2104, with an emission wavelength 1 being 665 nm and an emission wavelength 2 being 615 nm.
(§6) Fluorescence ratio=fluorescence value665 nm/fluorescence value615 nm
(§7) Inhibition rate (%)=100−((fluorescence ratio of compound well−fluorescence ratio of negative control well)/(fluorescence ratio of positive control well−fluorescence ratio of negative control well))×100
(§8) wherein: • the fluorescence ratio of compound well refers to the fluorescence ratio of the well containing the test compounds; • the fluorescence ratio of negative control well refers to the fluorescence ratio of the cell-free control well; • the fluorescence ratio of positive control well refers to the fluorescence ratio of the cell well treated with 0.5% DMSO.
(§9) IC50 value: obtained by calculation using XL-Fit 5.0 software.

Experiment [2] deals with T2, pERK1/2 (Thr202/Tyr204), NCI-1H441 (KRAS G12V) (Homo sapiens, UniProt P01116, G12V).
T2 construct: pERK1/2 HTRF read-out
As to the kind of experiment: Assay of intracellular pERK1/2 (Thr202/Tyr204) phosphorylation in NCI-H441 cells (KRAS G12V). Conditions: pERK1/2, 2 days, read-out: NCI-H441 (KRAS G12V) IC50. How it is done:
as §1, §2, §3, §4, §5, §6, §7, §8, §9

Experiment [3] has as its target T3, pERK1/2 (Thr202/Tyr204), PANC-1 (KRAS G121D) (Homo sapiens, UniProt P01116, G12D).
T3 construct: pERK1/2 HTRF read-out
As to the kind of experiment: Assay of intracellular pERK1/2 (Thr202/Tyr204) phosphorylation in PANC-1 cells (KRAS G12D). Conditions: pERK1/2, 2 days, read-out: PANC-1 (KRAS G12D) IC50. As for the experimental part:
as §1, §2, §3, §4, §5, §6, §7, §8, §9

T3 sequence (P01116 1-188 isoform P01116-2 G12D): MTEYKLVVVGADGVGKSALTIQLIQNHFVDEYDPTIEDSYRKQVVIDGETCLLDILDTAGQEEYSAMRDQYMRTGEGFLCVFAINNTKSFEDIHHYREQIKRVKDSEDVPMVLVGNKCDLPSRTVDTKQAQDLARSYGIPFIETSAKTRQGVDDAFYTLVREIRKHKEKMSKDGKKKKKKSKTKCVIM
T2 sequence (P01116 1-188 isoform P01116-2 G12V): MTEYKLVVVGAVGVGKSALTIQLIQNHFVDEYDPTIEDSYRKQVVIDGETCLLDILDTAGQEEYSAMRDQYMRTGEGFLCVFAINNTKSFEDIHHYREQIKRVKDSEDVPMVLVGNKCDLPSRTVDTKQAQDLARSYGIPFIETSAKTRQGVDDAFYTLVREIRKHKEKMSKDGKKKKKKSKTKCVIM
T1 sequence (P01116 1-188 isoform P01116-2 G12C): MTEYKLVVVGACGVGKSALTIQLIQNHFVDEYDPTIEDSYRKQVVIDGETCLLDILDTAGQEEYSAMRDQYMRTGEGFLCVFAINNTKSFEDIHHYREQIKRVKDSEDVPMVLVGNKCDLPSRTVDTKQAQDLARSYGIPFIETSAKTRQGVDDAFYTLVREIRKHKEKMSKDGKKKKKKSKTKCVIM

On to `CC(c1cccnc1N)N1CCOc2nc(-c3cc(O)cc4ccc(F)c(F)c34)c(F)c3nc(OC[C@@H]4CC(F)(F)CN4C)nc1c23` (single isomer, unassigned) [Compound 51, 4-(10-((R or S)-1-(2-aminopyridin-3-yl)ethyl)-2-(((S)-4,4-difluoro-1-methylpyrrolidin-2-yl)methoxy)-4-fluoro-9,10-dihydro-8H-7-oxa-1,3,6,10-tetraazacyclohepta[de]naphthalen-5-yl)-5,6-difluoronaphthalen-2-ol], for which the IC50 (usually the concentration at which inhibition is half-maximal) in experiment [1] turned out to be 2 nM; in experiment [2], 5 nM; in experiment [3], 100 nM.
The corresponding values for `CC(c1cccnc1N)N1CCOc2nc(-c3cc(N)ccc3C(F)(F)F)c(F)c3nc(OC[C@@]45CCCN4C[C@H](F)C5)nc1c23` (single isomer, unassigned) [Compound 53, 3-((R or S)-1-(5-(5-amino-2-(trifluoromethyl)phenyl)-4-fluoro-2-(((2R,7aS)-2-fluorotetrahydro-1H-pyrrolizin-7a(5H)-yl)methoxy)-8,9-dihydro-10H-7-oxa-1,3,6,10-tetraazacyclohepta[de]naphthalen-10-yl)ethyl)pyridin-2-amine] are 88 nM, 191 nM and above 1000 nM.
As to `CC(c1cccnc1N)N1CCOc2nc(-c3cc(N)ccc3C(F)(F)F)c(F)c3nc(OC[C@@]45CCCN4C[C@H](F)C5)nc1c23` (single isomer, unassigned) [Compound 54, 3-((R or S)-1-(5-(5-amino-2-(trifluoromethyl)phenyl)-4-fluoro-2-(((2R,7aS)-2-fluorotetrahydro-1H-pyrrolizin-7a(5H)-yl)methoxy)-8,9-dihydro-10H-7-oxa-1,3,6,10-tetraazacyclohepta[de]naphthalen-10-yl)ethyl)pyridin-2-amine], the IC50 in experiment [1] worked out at 0.7 nM; in experiment [2], 2 nM; in experiment [3] it was 21 nM.
The matching figures for `CC(c1cccnc1N)N1CCOc2nc(-c3cc(O)cc(Cl)c3C3CC3)c(F)c3nc(OC[C@@H]4CC(F)(F)CN4C)nc1c23` (single isomer, unassigned) [Compound 55, 3-(10-((R or S)-1-(2-aminopyridin-3-yl)ethyl)-2-(((S)-4,4-difluoro-1-methylpyrrolidin-2-yl)methoxy)-4-fluoro-9,10-dihydro-8H-7-oxa-1,3,6,10-tetraazacyclohepta[de]naphthalen-5-yl)-5-chloro-4-cyclopropylphenol]: 322 nM, 511 nM and above 1000 nM.
The corresponding values for `CC(c1cccnc1N)N1CCOc2nc(-c3cc(O)cc(Cl)c3C3CC3)c(F)c3nc(OC[C@@H]4CC(F)(F)CN4C)nc1c23` (single isomer, unassigned) [Compound 56, 3-(10-((R or S)-1-(2-aminopyridin-3-yl)ethyl)-2-(((S)-4,4-difluoro-1-methylpyrrolidin-2-yl)methoxy)-4-fluoro-9,10-dihydro-8H-7-oxa-1,3,6,10-tetraazacyclohepta[de]naphthalen-5-yl)-5-chloro-4-cyclopropylphenol] are 3 nM, 5 nM and 134 nM.
Turning to `CC(c1cccnc1N)N1CCOc2nc(-c3cc(O)cc(Cl)c3C(F)(F)F)c(F)c3nc(OC[C@@]45CCCN4C[C@H](F)C5)nc1c23` (single isomer, unassigned) [Compound 57, 3-(10-((R or S)-1-(2-aminopyridin-3-yl)ethyl)-4-fluoro-2-(((2R,7aS)-2-fluorotetrahydro-1H-pyrrolizin-7a(5H)-yl)methoxy)-9,10-dihydro-8H-7-oxa-1,3,6,10-tetraazacyclohepta[de]naphthalen-5-yl)-5-chloro-4-(trifluoromethyl)phenol], the IC50 turned out to be 15 nM in experiment [1], 32 nM in experiment [2] and 746 nM in experiment [3].
The corresponding values for `CC(c1cccnc1N)N1CCOc2nc(-c3cc(O)cc(Cl)c3C(F)(F)F)c(F)c3nc(OC[C@@]45CCCN4C[C@H](F)C5)nc1c23` (single isomer, unassigned) [Compound 58, 3-(10-((R or S)-1-(2-aminopyridin-3-yl)ethyl)-4-fluoro-2-(((2R,7aS)-2-fluorotetrahydro-1H-pyrrolizin-7a(5H)-yl)methoxy)-9,10-dihydro-8H-7-oxa-1,3,6,10-tetraazacyclohepta[de]naphthalen-5-yl)-5-chloro-4-(trifluoromethyl)phenol] are 3 nM, 5 nM and 147 nM.
`Cc1cc(N)cc(-c2nc3c4c(nc(OC[C@@]56CCCN5C[C@H](F)C6)nc4c2F)N(C(C)c2cccnc2N)CCO3)c1C(F)(F)F` (single isomer, unassigned) [Compound 61, 3-((R or S)-1-(5-(5-amino-3-methyl-2-(trifluoromethyl)phenyl)-4-fluoro-2-(((2R,7aS)-2-fluorotetrahydro-1H-pyrrolizin-7a(5H)-yl)methoxy)-8,9-dihydro-10H-7-oxa-1,3,6,10-tetraazacyclohepta[de]naphthalen-10-yl)ethyl)pyridin-2-amine]: the IC50 was determined as 0.2 nM in experiment [1], 0.2 nM in experiment [2] and 0.6 nM in experiment [3].
As to `Cc1cc(N)cc(-c2nc3c4c(nc(OC[C@@]56CCCN5C[C@H](F)C6)nc4c2F)N(C(C)c2cccnc2N)CCO3)c1C(F)(F)F` (single isomer, unassigned) [Compound 62, 3-((R or S)-1-(5-(5-amino-3-methyl-2-(trifluoromethyl)phenyl)-4-fluoro-2-(((2R,7aS)-2-fluorotetrahydro-1H-pyrrolizin-7a(5H)-yl)methoxy)-8,9-dihydro-10H-7-oxa-1,3,6,10-tetraazacyclohepta[de]naphthalen-10-yl)ethyl)pyridin-2-amine], the IC50 in experiment [1] was 8 nM; in experiment [2], 9 nM; in experiment [3] it was 55 nM.
Take `CC(c1cccnc1N)N1CCOc2nc(-c3cc(N)cc(Cl)c3C(F)(F)F)c(F)c3nc(OC[C@@]45CCCN4C[C@H](F)C5)nc1c23` (single isomer, unassigned) [Compound 71, 3-((R or S)-1-(5-(5-amino-3-chloro-2-(trifluoromethyl)phenyl)-4-fluoro-2-(((2R,7aS)-2-fluorotetrahydro-1H-pyrrolizin-7a(5H)-yl)methoxy)-8,9-dihydro-10H-7-oxa-1,3,6,10-tetraazacyclohepta[de]naphthalen-10-yl)ethyl)pyridin-2-amine]: the IC50 amounted to 0.1 nM in experiment [1], 0.4 nM in experiment [2] and 0.6 nM in experiment [3].
For `CC(c1cccnc1N)N1CCOc2nc(-c3cc(N)cc(Cl)c3C(F)(F)F)c(F)c3nc(OC[C@@]45CCCN4C[C@H](F)C5)nc1c23` (single isomer, unassigned) [Compound 72, 3-((R or S)-1-(5-(5-amino-3-chloro-2-(trifluoromethyl)phenyl)-4-fluoro-2-(((2R,7aS)-2-fluorotetrahydro-1H-pyrrolizin-7a(5H)-yl)methoxy)-8,9-dihydro-10H-7-oxa-1,3,6,10-tetraazacyclohepta[de]naphthalen-10-yl)ethyl)pyridin-2-amine], the IC50 in experiment [1] is 11 nM; in experiment [2], 13 nM; in experiment [3] it was 38 nM.
